Data: patent US20060199230A1, “Use of prostate specific antigen to predict drug response” (Hybritech Incorporated, priority 2005, published 2006)

How the values were obtained:
[1] = tested on: total PSA, proPSA, free PSA and BPSA in serum; experiment: Serum PSA forms at Time 0 and 1 month of dutasteride treatment; drug response = prostate volume decrease of 10% or more at 12 months (Example I); assay type: in vivo, men
Experimental: (§1) A cohort of serum samples from men greater or equal to 50 years of age with BPH were used. The PSA range was from 1.5 to 10 ng/ml (median 3.2 ng/ml). International Prostate Symptom Score (IPSS) upon entry were 11-32 (moderate to severe, median 18.5). The median Qmax (urine flow rate in cc per second) was 9.3. Men received TRUS for prostate volume at time 0 and then received dutasteride in a blinded fashion at a rate of 0.5 mg per day. Serum was obtained at 0, 1, 3, and 12 months and was assayed for total PSA, proPSA, free PSA and BPSA. IPSS symptom scores were determined at 0, 1 and 12 months. Additional TRUS for prostate volume was performed at 12 months after the start of drug treatment.
Serum from placebo and drug-treated men were tested for levels of PSA forms at Time 0 (pretreatment baseline), and at 1, 3 and 12 months after the start of placebo or drug treatment. […] In this plot, the decrease in prostate volume by 10% or more was used as the definition of drug response.

[2] = tested on: total PSA, proPSA, free PSA and BPSA in serum; experiment: Serum PSA forms at Time 0 and 1 month of dutasteride treatment; drug response = IPSS decrease of 2 or more at 12 months (Example II); assay type: in vivo, men
Experimental: as §1
The concentrations of total PSA, free PSA, proPSA, and BPSA were examined at Time 0 (pretreatment baseline) and at 1 month after drug treatment. Drug response was defined as men who had improvement (decrease) in their IPSS of equal to 2 or greater after 12 months of treatment. […] The increases in the ratio of BPSA to total PSA and the ratio of BPSA to free PSA were also highly significant.
Another method of determining a cutoff for clinical utility is to calculate the Odds Ratio of a response to drug treatment at 12 months, based on the percentage change in a measured parameter at 1 month. In this case, the odds of responding to the drug (drop of 2 or more in the IPSS at 12 months) increases with increasing ratio of BPSA to proPSA at 1 month. […] With a >250% increase of BPSA to proPSA ratio over baseline at 1 month, there is at least a 2-fold increase in the odds of having a drug response at 12 months. An Odds Ratio of at least 2 is the preferred embodiment of the invention. Using Odds Ratio as a means to set a cutoff for the increase in the ratio of BPSA to proPSA would have a preferred cutoff of 250%.

[3] = about 1 month after drug administration, men with 10% or greater decrease in prostate volume at 12 months
[4] = median after 1 month of drug, 0.5 mg per day, men with decrease of 10% or more in prostate volume at 12 months
[5] = median, pretreatment baseline, drug-treated men with decrease of 10% or more in prostate volume at 12 months
[6] = Table 3, samples with a decrease of 2 or more in IPSS
[7] = about 1 month, IPSS reduction of 2 or greater at 12 months as drug response
[8] = median after 1 month of drug, 0.5 mg per day, men with improvement in IPSS of 2 or more at 12 months
[9] = median, pretreatment baseline, drug-treated men with improvement in IPSS of 2 or more at 12 months

## C[C@]12C=CC(=O)N[C@@H]1CC[C@@H]1[C@@H]2CC[C@]2(C)[C@@H](C(=O)Nc3cc(C(F)(F)F)ccc3C(F)(F)F)CC[C@@H]12 [dutasteride]
[1]; 3 months of drug treatment
  total PSA and free PSA levels at 3 months: the levels decrease at 3 months
[1]; [3]
  decrease in proPSA: 48%
  increase in BPSA: 86%
  increase of the ratio of BPSA to PSA: 78%
  increase of the ratio of BPSA to free PSA: 52%
  increase of the ratio of BPSA to proPSA over the baseline ratio: 450%
[1]; drug responders: decrease in prostate volume by 10% or more after 12 months
  change in total PSA, free PSA, or the ratio of free to total PSA at 1 month: no significant change
[1]; drug-treated men with less than 10% decrease in prostate volume at 12 months
  change in BPSA at 1 month in drug non-responders: no significant increase
[1]; [4]
  BPSA, 1 Month: 0.186 ng/mL
  BPSA/free PSA, 1 Month: 0.230
  BPSA/proPSA, 1 Month: 2.26
  BPSA/total PSA, 1 Month: 0.050
  Free PSA, 1 Month: 0.76 ng/mL
  Free PSA/total PSA, 1 Month: 0.214
  Total PSA, 1 Month: 3.14 ng/mL
  proPSA, 1 Month: 0.097 ng/mL
[1]; [5]
  BPSA, Time 0: 0.100 ng/mL
  BPSA/free PSA, Time 0: 0.151
  BPSA/proPSA, Time 0: 0.499
  BPSA/total PSA, Time 0: 0.028
  Free PSA, Time 0: 0.70 ng/mL
  Free PSA/total PSA, Time 0: 0.204
  Total PSA, Time 0: 3.02 ng/mL
  proPSA, Time 0: 0.204 ng/mL
[1]; three months after the start of drug administration, FIG. 1
  BPSA level at three months vs baseline: decline below the baseline level
[2]; [6]
  BPSA, median value at 1 month, Drug: 0.091, 0.151 ng/ml
  BPSA/free PSA, median value at 1 month, Drug: 0.228
  BPSA/total PSA, median value at 1 month, Drug: 0.032, 0.046
  Free PSA, median value at 1 month, Drug: 0.62, 0.67 ng/ml
  Free PSA/total PSA, median value at 1 month, Drug: 0.22, 0.21
  Total PSA, median value at 1 month, Drug: 3.00, 3.08 ng/ml
[2]; [7]
  decrease in proPSA: 41%
  increase in BPSA to proPSA ratio over baseline: 230%
  increase in BPSA/free PSA ratio: 44%
  increase in BPSA/total PSA ratio: 59%
[2]; about 1 month, IPSS reduction of 2 or greater at 12 months as drug response, not significant
  increase in BPSA: 25%
[2]; [8]
  BPSA, 1 Month: 0.151 ng/mL
  BPSA/free PSA, 1 Month: 0.228
  BPSA/proPSA, 1 Month: 1.32
  BPSA/total PSA, 1 Month: 0.046
  Free PSA, 1 Month: 0.67 ng/mL
  Free PSA/total PSA, 1 Month: 0.21
  Total PSA, 1 Month: 3.14 ng/mL
  proPSA, 1 Month: 0.103 ng/mL
[2]; [9]
  BPSA, Time 0: 0.120 ng/mL
  BPSA/free PSA, Time 0: 0.158
  BPSA/proPSA, Time 0: 0.584
  BPSA/total PSA, Time 0: 0.029
  Free PSA, Time 0: 0.77 ng/mL
  Free PSA/total PSA, Time 0: 0.19
  Total PSA, Time 0: 3.68 ng/mL
  proPSA, Time 0: 0.253 ng/mL
[2]; men with IPSS improvement of less than 2
  difference in any PSA-related parameter, Time 0 vs 1 month, drug non-responders: None of the placebo samples, or the men with IPSS improvement of less than 2 (drug non-responders), showed statistically a significant difference
